In patent US20110028345A1, “METHODS TO CHARACTERIZE CELL REPROGRAMMING AND USES THEREOF” (CORNING INCORPORATED, priority 2009, published 2011):
Ends that are not written are not given here.

Each compound was assayed on undifferentiated and differentiated ReN cells (assay: DMR marker panel profiling, differentiated versus undifferentiated ReN cells). Details: markers at 10 μM (dopamine and glucagons like peptide 128 μM); FIG. 9-11.
Type: cell-based, human
Procedure: The confluency for all cells at the time of assays was ˜95% to 100%.
For biosensor cellular assays, compound solutions were made by diluting the stored concentrated solutions with the HBSS (1× Hanks balanced salt solution, plus 20 mM Hepes, pH 7.1), and transferred into a 384 well polypropylene compound storage plate to prepare a compound source plate. […] Afterwards, a 2 to 10 min continuous recording was carried out to establish a baseline, and to ensure that the cells reached a steady state.

Compound	specificity of the marker DMR signal for the differentiation state
Nc1ncnc2c1ncn2[C@@H]1O[C@H](COP(=O)(O)OP(=O)(O)O)[C@@H](O)[C@H]1O [ADP]	non-specific to both the undifferentiated and differentiated ReN cells
Nc1ncnc2c1ncn2[C@@H]1O[C@H](COP(=O)(O)OP(=O)(O)OP(=O)(O)O)[C@@H](O)[C@H]1O [ATP]	specific to the differentiated ReN cells
NCCCC(=O)O [GABA]	non-specific to both the undifferentiated and differentiated ReN cells
O=c1ccn([C@@H]2O[C@H](COP(=O)(O)OP(=O)(O)O)[C@@H](O)[C@H]2O)c(=O)[nH]1 [UDP]	specific to the differentiated ReN cells
O=c1ccn([C@@H]2O[C@H](COP(=O)(O)OP(=O)(O)OP(=O)(O)O)[C@@H](O)[C@H]2O)c(=O)[nH]1 [UTP]	specific to the undifferentiated cells
Nc1ncnc2c1ncn2[C@@H]1O[C@H](CO)[C@@H](O)[C@H]1O [adenosine]	specific to the differentiated ReN cells
NCCCNCCCCNCCCN [spermine]	specific to the differentiated ReN cells
NCCc1ccc(O)cc1 [tyramine]	specific to the undifferentiated cells
Neuropeptide Y	specific to the differentiated ReN cells
SFLLR-amide	specific to the differentiated ReN cells
alpha-melanocyte-stimulating hormone (SYSMEHFRWGKPV; ends and bridges not checked; UniProt P01189 138-150, looked up) [MCH receptor agonist]	non-specific to both the undifferentiated and differentiated ReN cells
angiotensin II (DRVYIHPF; Angiotensin-2; UniProt P01019 25-32, looked up) [ATII receptor angiotensin II]	specific to the undifferentiated cells
apelin	non-specific to both the undifferentiated and differentiated ReN cells
dynorphin A (YGGFLRRIRPKLKWDNQ; Dynorphin A(1-17); UniProt P01213 207-223, looked up) [opioid receptor agonist]	specific to the differentiated ReN cells
endothelin 1 (CSCSSLMDKECVYFCHLDIIW; ends and bridges not checked; cysteine pairing not given here; UniProt P05305 53-73, looked up) [endothelin receptor agonist]	specific to the differentiated ReN cells
glucagons like peptide	specific to the undifferentiated cells
lysophosphatidic acid	specific to the undifferentiated cells
neuropeptide B-23 (WYKPAAGHSSYSVGRAAGLLSGLR; ends and bridges not checked; UniProt Q8NG41 25-48, looked up) [GPR7 and 8 agonist]	specific to the differentiated ReN cells
orexin A (QPLPDCCRQKTCSCRLYELLHGAGNHAAGILTL; ends and bridges not checked; cysteine pairing not given here; UniProt O43612 34-66, looked up) [orexin receptor agonist]	specific to the differentiated ReN cells
platelet growth factor	non-specific to both the undifferentiated and differentiated ReN cells
